In US11584765B2 (priority 2017, dated 2023):

Test system: C57BL/6 mice
Test: animal or person
Format: in vivo
Conditions: Mus musculus, sc, 0.5 h, s.c. administration, 30 min, 55° C. water, read-out: ED50 (mg/kg) at 30 min on C57BL/6 mice in Warm-water Tail-flick Test

SMILES: CC(=O)Nc1ccc(CN2CCC(C(=O)c3ccccc3)(c3ccccn3)CC2)cc1 [Compound 42, N-(4-((4-benzoyl-4-(pyridin-2-yl)piperidin-1-yl)methyl)phenyl)acetamide]
- ED50: > 10 mg/kg

SMILES: CC(=O)N(C)c1ccc(CN2CCC(CCc3ccccc3)(c3ncc[nH]3)CC2)cc1 [Compound 43, N-(4-((4-(1H-imidazol-2-yl)-4-phenethylpiperidin-1-yl)methyl)phenyl)-N-methylacetamide]
- ED50: > 10 mg/kg

SMILES: CC(=O)Nc1ccc(CN2CCC(/C=C/c3ccccn3)(c3ccccn3)CC2)cc1 [Compound 44, (E)-N-(4-((4-(pyridin-2-yl)-4-(2-(pyridin-2-yl)vinyl)piperidin-1-yl)methyl)phenyl)acetamide]
- ED50: > 10 mg/kg

SMILES: CC(=O)Nc1ccc(CN2CCC(c3ccccn3)(C(O)c3ccccc3)CC2)cc1 (stereo not shown) [Compound 45, N-(4-((4-(hydroxy(phenyl)methyl)-4-(pyridin-2-yl)piperidin-1-yl)methyl)phenyl)acetamide]
- ED50: > 10 mg/kg

SMILES: CC(=O)Nc1ccc(CN2CCC(/C=C/Cc3ccccc3)(c3ccccn3)CC2)cc1 [Compound 46, (E)-N-(4-((4-(3-phenylprop-1-enyl)-4-(pyridin-2-yl)piperidin-1-yl)methyl)phenyl)acetamide]
- ED50: > 10 mg/kg

SMILES: CC(=O)Nc1ccc(CN2CCC(/C=C/c3ccccc3)(c3cccc(F)n3)CC2)cc1 [Compound 47, (E)-N-(4-((4-(6-fluoropyridin-2-yl)-4-styrylpiperidin-1-yl)methyl)phenyl)acetamide]
- ED50: > 10 mg/kg

SMILES: CC(=O)Nc1ccc(CN2CCC(/C=C/c3ccccc3)(c3cccnc3)CC2)cc1 [Compound 48, (E)-N-(4-((4-(pyridin-3-yl)-4-styrylpiperidin-1-yl)methyl)phenyl)acetamide]
- ED50: > 10 mg/kg

SMILES: C=CCC1(c2ccccn2)CCN(Cc2ccc(NC(C)=O)cc2)CC1 [Compound 49, N-(4-((4-allyl-4-(pyridin-2-yl)piperidin-1-yl)methyl)phenyl)acetamide]
- ED50: > 10 mg/kg

SMILES: O=C(Nc1ccc(CN2CCC(CCc3ccccc3)(c3ccccn3)CC2)cc1)C(F)(F)F [Compound 50, 2,2,2-trifluoro-N-(4-((4-phenethyl-4-(pyridin-2-yl)piperidin-1-yl)methyl)phenyl)acetamide]
- ED50: > 10 mg/kg

SMILES: CC(=O)Nc1ccc(CN2CCC(CCc3ccccc3)(c3ccccn3)CC2)cc1F.Cl [Compound 52, N-(2-fluoro-4-((4-phenethyl-4-(pyridin-2-yl)piperidin-1-yl)methyl)phenyl)acetamide HCl]
- ED50: > 10 mg/kg

SMILES: CC(=O)Nc1ccc(CN2CCC(CCc3ccccc3)(c3ccccn3)CC2)c(F)c1 [Compound 53, N-(3-fluoro-4-((4-phenethyl-4-(pyridin-2-yl)piperidin-1-yl)methyl)phenyl)acetamide]
- ED50: > 10 mg/kg

SMILES: CNC(=O)c1ccc(CN2CCC(CCc3ccccc3)(c3ccccn3)CC2)cc1 [Compound 54, N-methyl-4-((4-phenethyl-4-(pyridin-2-yl)piperidin-1-yl)methyl)benzamide]
- ED50: > 10 mg/kg

SMILES: NC(=O)c1ccc(CN2CCC(CCc3ccccc3)(c3ccccn3)CC2)cc1 [Compound 55, 4-((4-phenethyl-4-(pyridin-2-yl)piperidin-1-yl)methyl)benzamide]
- ED50: > 10 mg/kg

SMILES: CC(=O)Nc1ccc(CN2CCC(CCc3ccccc3)(CN(C)C)CC2)cc1 [Compound 56, N-(4-((4-((dimethylamino)methyl)-4-phenethylpiperidin-1-yl)methyl)phenyl)acetamide]
- ED50: > 10 mg/kg

SMILES: CC(=O)Nc1ccc(CN2CCC(CCc3ccccc3)(CN(C)C(C)=O)CC2)cc1 [Compound 57, N-((1-(4-acetamidobenzyl)-4-phenethylpiperidin-4-yl)methyl)-N-methylacetamide]
- ED50: > 10 mg/kg

SMILES: CC(=O)Nc1ccc(CN2CCC(CCc3ccccc3)(COC(C)=O)CC2)cc1 [Compound 58, (1-(4-acetamidobenzyl)-4-phenethylpiperidin-4-yl)methyl acetate]
- ED50: > 10 mg/kg

SMILES: CCOCC1(CCc2ccccc2)CCN(Cc2ccc(NC(C)=O)cc2)CC1 [Compound 59, N-(4-((4-(ethoxymethyl)-4-phenethylpiperidin-1-yl)methyl)phenyl)acetamide]
- ED50: < 10 mg/kg

SMILES: CC(=O)Nc1ccc(CN2CCC(CCc3ccccc3)(C(N)=O)CC2)cc1 [Compound 60, 1-(4-acetamidobenzyl)-4-phenethylpiperidine-4-carboxamide]
- ED50: > 10 mg/kg

SMILES: Oc1ccc(CN2CCC(CCc3ccccc3)(c3ccccn3)CC2)cc1 [Compound 61, 4-((4-phenethyl-4-(pyridin-2-yl)piperidin-1-yl)methyl)phenol]
- ED50: > 10 mg/kg

SMILES: COc1ccc(C2(/C=C/c3ccccc3)CCN(Cc3ccc(NC(C)=O)cc3)CC2)nc1 [Compound 62, (E)-N-(4-((4-(5-methoxypyridin-2-yl)-4-styrylpiperidin-1-yl)methyl)phenyl)acetamide]
- ED50: > 10 mg/kg

SMILES: COc1ccc(C2(/C=C\c3ccccc3)CCN(Cc3ccc(NC(C)=O)cc3)CC2)nc1 [Compound 63, (Z)-N-(4-((4-(5-methoxypyridin-2-yl)-4-styrylpiperidin-1-yl)methyl)phenyl)acetamide]
- ED50: > 10 mg/kg

SMILES: CS(=O)(=O)N(c1ccc(CN2CCC(CCc3ccccc3)(c3ccccn3)CC2)cc1)S(C)(=O)=O [Compound 64, N-(methylsulfonyl)-N-(4-((4-phenethyl-4-(pyridin-2-yl)piperidin-1-yl)methyl)phenyl)methane-sulfonamide]
- ED50: > 10 mg/kg

SMILES: CNC(=O)C1(CCc2ccccc2)CCN(Cc2ccc(NC(C)=O)cc2)CC1 [Compound 65]
- ED50: > 10 mg/kg

SMILES: CC(=O)Nc1ccc(CN2CCC(CCc3ccccc3)(C(=O)N(C)C)CC2)cc1 [Compound 66, 1-(4-acetamidobenzyl)-N,N-dimethyl-4-phenethylpiperidine-4-carboxamide]
- ED50: > 10 mg/kg

SMILES: CC(=O)NCC1(CCc2ccccc2)CCN(Cc2ccc(NC(C)=O)cc2)CC1 [Compound 67, N-((1-(4-acetamidobenzyl)-4-phenethylpiperidin-4-yl)methyl)acetamide]
- ED50: > 10 mg/kg

SMILES: CC(=O)Nc1ccc(CN2CCC(CO)(CCc3ccccc3)CC2)cc1 [Compound 68, N-(4-((4-(hydroxymethyl)-4-phenethylpiperidin-1-yl)methyl)phenyl)acetamide]
- ED50: > 10 mg/kg

SMILES: CC(=O)Nc1ccc(CN2CCC(CCc3ccccc3)(C3CCCO3)CC2)cc1 (stereo not shown) [Compound 69, N-(4-((4-phenethyl-4-(tetrahydrofuran-2-yl)piperidin-1-yl)methyl)phenyl)acetamide]
- ED50: < 10 mg/kg

SMILES: CC(=O)Nc1ccc(CN2CCC(CCc3ccccc3)(C3CCCCO3)CC2)cc1 (stereo not shown) [Compound 70, N-(4-((4-phenethyl-4-(tetrahydro-2H-pyran-2-yl)piperidin-1-yl)methyl)phenyl)acetamide]
- ED50: > 10 mg/kg

SMILES: CC(=O)Nc1ccc(CN2CCCC(/C=C/c3ccccc3)(c3ccccn3)C2)cc1 (stereo not shown) [Compound 71, (E)-N-(4-((3-(pyridin-2-yl)-3-styrylpiperidin-1-yl)methyl)phenyl)acetamide]
- ED50: > 10 mg/kg

SMILES: COCC1(CCc2ccccc2)CCN(Cc2ccc(NC(C)=O)cc2)CC1 [Compound 72, N-(4-((4-(methoxymethyl)-4-phenethylpiperidin-1-yl)methyl)phenyl)acetamide]
- ED50: > 10 mg/kg

SMILES: CC(=O)Nc1ccc(CN2CCC(CCc3ccccc3)(C3CC=CCO3)CC2)cc1 (stereo not shown) [Compound 73, N-(4-((4-(3,6-dihydro-2H-pyran-2-yl)-4-phenethylpiperidin-1-yl)methyl)phenyl)acetamide]
- ED50: > 10 mg/kg
